For test [1], the target named is T1, ITPKA (Ins(1,4,5)P3-kinase-A) (Homo sapiens, UniProt P23677).
T1 construct: expressed in bacteria as GFP-His-fusion protein, tags cleaved with TEV protease
The test can be described thus: coupled optical InsP3-kinase assay (pyruvate kinase/lactate dehydrogenase, NADH) with […] recombinant ITPKA. It is filed as biochemical.

Test [2] has as its target F-actin (filamentous actin) (chicken) (UniProt P68139). As to the kind of experiment: co-sedimentation; F-actin bundling assay: G-actin in F-actin buffer (20 mM Tris-HCl pH 7.5, 100 mM KCl, 2 mM MgCl2, 1 mM EGTA, 1 mM DTT, 0.5 mM ATP) with or without ITPKA proteins, 20 min at RT, 10,000 g for 20 min at 4°C; about 1 µM F-actin, 0.5 µM ITPKA, 10-fold excess of ITPKA^L34P; supernatant and pellet on Coomassie-stained SDS-PAGE.

By IC50 is commonly meant the midpoint of a concentration-inhibition curve.

Chain of Ins(1,4,5)P3-kinase-A (ITPKA), wild type (P23677 whole entry): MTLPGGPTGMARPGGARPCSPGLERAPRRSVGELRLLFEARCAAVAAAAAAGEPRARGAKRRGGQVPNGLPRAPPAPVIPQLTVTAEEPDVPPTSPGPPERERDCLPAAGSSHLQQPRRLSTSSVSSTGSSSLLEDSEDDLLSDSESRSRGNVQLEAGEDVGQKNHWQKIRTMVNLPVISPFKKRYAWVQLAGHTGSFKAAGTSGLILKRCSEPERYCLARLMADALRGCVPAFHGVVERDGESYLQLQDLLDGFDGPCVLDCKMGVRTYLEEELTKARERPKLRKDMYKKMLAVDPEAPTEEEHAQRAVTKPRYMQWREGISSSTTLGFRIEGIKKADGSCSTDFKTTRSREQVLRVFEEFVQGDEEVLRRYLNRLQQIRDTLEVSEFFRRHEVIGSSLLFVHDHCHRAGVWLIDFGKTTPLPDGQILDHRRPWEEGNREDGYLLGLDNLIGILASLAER
T1 sequence (P23677 whole entry, the tested form may be a part): as the sequence (P23677 whole entry) above

Regarding `C[C@@H]1CN(Cc2cn[nH]c2-c2ccc(C#N)cc2)CCN1c1ccc(C(F)(F)F)cn1` [GNF362], in test [1], the IC50 came to 17 nM. For “Ins(1,4,5)P3-kinase-A (ITPKA), wild type (from UniProt P23677 1-461) (enzyme)”, the percent of F-actin bundled in test [2] was 60%.
